{"source": "patent EP4537820A1", "about": "“COMPOUND AND COMBINATIONS COMPRISING SAID COMPOUND TO IMPROVE IMMUNE RESPONSE” (Institut Gustave-Roussy, priority 2023, dated 2025)", "key": {"20S proteasome [1]": {"tested_on": "T1, 20S proteasome", "T1 construct": "purified 20S proteasome from human erythrocytes; purchased Biotechne E-360-050; host or cells: human erythrocytes", "assay": "Second confirmatory counter-screen of hits on the proteasome alone", "assay_type": "biochemical, human", "conditions": "counter-screen on 20S proteasome only, without REGγ", "method": "The 3 chemical libraries tested were obtained from the NIH : The Natural Products set (NP.V) consisting of 390 compounds, the Oncology Approved Drugs set (AOD.IX) consisting of 147 FDA-approved compounds and the Diversity set (DIV.VI) consisting of 1584 compounds. Libraries were prepared and screened with a Biomek FXP workstation in 384 well plates. Compounds activity was assessed using a fluorescence activity test of the proteasome using the Bz-VGR-AMC fluorogenic substrate (#BML-BW9375-0005, Enzo Life Sciences). 50µM of the fluorogenic substrate was used with 20µM of the tested compound, and 2nM of 20S human proteasome (#E-360-050, Biotechne) in presence or absence of 50nM of human REGγ (#E-384-MTO, Biotechne). After preparation of the mix, plates were incubated for 2h at 37°C before being read on a Spectramax i3 microplate reader from Molecular devices (Excitation wavelength : 345nm; Emission wavelength : 445nm). […]\nUsing the control condition without REGγ, they then eliminated compounds that were inhibiting the 20S proteasome, using the 95% interval of confidence of the 20S control for each plate. […] Fluorescence was measured every minute with a FLUOstar plate reader (BMG Labtech). […]\nAfter conducting the screening and validating the quality control using a custom algorithm, they analyzed the data to select their hits. […]"}, "20S proteasome [2]": {"tested_on": "T1, 20S proteasome", "assay": "Thermal Shift Assay (nanoDSF) with 20S", "assay_type": "binding, human", "conditions": "20S 50nM, compound at 100X (5µM, 0,1% DMSO)", "method": "Thermal shift assay was carried out with nano differential scanning fluorimetry (nanoDSF) using the Tycho NT.6 from Nanotemper and was performed at the I2BC platform (Gif-sur-Yvette). Samples were prepared in a final volume of 25µL in a 96-well plate prior to be loaded on the Tycho capillaries. Proteins were diluted in activity buffer (20mM Tris-HCl pH 7.4 and 20mM NaCl). After optimisation, REGγ concentration was set to 500nM and 20S concentration to 50nM. Compounds concentrations were determined as ratios to protein concentration and to stay below 0,5% of DMSO; accordingly, compounds with REGγ were tested at 40X (20µM, 0,4% DMSO) and at 100X (5µM, 0,1% DMSO) with 20S. A thermal ramp was applied from 20 to 95°C and fluorescence was followed at 350nm and 330 nm, measuring intrinsic fluorescence of the proteins from tryptophan and tyrosine residues. Binding was detected as a shift in the inflection temperature (Ti) compared to the DMSO control.\nTo assess the efficacy of molecule 58 in directly binding to REGγ, inventors conducted a thermal shift assay (TSA). TSA leverages the property of proteins to undergo unfolding at specific temperatures, and the interaction with a ligand can alter the thermal stability, leading to a shift in the unfolding temperature. In their study, inventors examined how the compound 58 interacted with REGγ and monitored the change in melting temperature (ΔTm)."}, "20S-REGy complex": {"target": "20S-REGy complex (Homo sapiens, UniProt P61289)", "sequence (P61289 whole entry, one chain of several)": "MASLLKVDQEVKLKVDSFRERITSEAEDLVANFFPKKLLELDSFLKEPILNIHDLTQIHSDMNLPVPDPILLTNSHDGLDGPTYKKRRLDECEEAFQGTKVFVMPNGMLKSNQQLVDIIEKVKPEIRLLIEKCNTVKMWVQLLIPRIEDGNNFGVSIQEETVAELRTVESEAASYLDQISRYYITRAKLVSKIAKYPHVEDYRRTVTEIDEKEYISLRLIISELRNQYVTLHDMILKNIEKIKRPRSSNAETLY", "assay": "Peptide degradation assay with Fluorescamine (KH-52), with REGγ", "assay_type": "biochemical", "conditions": "20S-REGγ complex, 50 µM compound, 37°C", "method": "(§1) Degradation of the 52 amino acid peptide KH-52: […], Boulpicante et al.) by the 20S proteasome was followed by amino-acid group generation using Fluorescamine (#F9015, Sigma-Aldrich). The peptide substrate was incubated at 100µM with 25nM 20S, with or without 160nM REGγ and with different concentration of the tested compounds or DMSO. Assays were performed in 100µL in phosphate buffer (pH 6.8) and incubated at 37°C in a water bath for 8 hours. After 4, 6 and 8 hours, 22µL of sample were retrieved and added to 88µL of phosphate buffer before being stored at - 20°C prior to revelation. For the revelation, samples were thawed and filtered in a centrifuge 20min at 4°C 1kDa filters (#OD003C34, Pall Corporation). To avoid any amino group contamination, filtered were washed in phosphate buffer before use. 20µL of filtered-sample were plated in triplicates in a black 96-wells plate (#237108, Thermo Scientific) and 10µL of fluorescamine (1mg/mL, in 100% acetone) was added to the samples. The plate was placed on agitation for 1min before the reaction was stopped by adding 200µL of water to each well. The fluorescence intensity was measured using a FluoSTAR plate reader (BMG Labtech) with excitation wavelength at 355nm and emission wavelength at 460nm.\n(§2) These findings were established through both in vitro degradation assays and T cell experiments. […]"}, "[3]": {"tested_on": "human constitutive 20S proteasome (h20S)", "assay": "Peptide degradation assay with Fluorescamine (KH-52), 20S alone", "assay_type": "biochemical", "conditions": "different concentrations tested, 37°C", "method": "as §1, §2"}}}
{"smiles": "Cc1ccc(N=Nc2ccc(C)cc2NC(=O)Nc2ccccc2F)cc1", "note": "[compound 58]", "values": [{"measurement": "inhibition of the 20S core alone", "setting": "20S proteasome [1]", "result": "without inhibiting the 20S core alone"}, {"measurement": "change in melting temperature (ΔTm)", "setting": "20S proteasome [2]", "result": "no significant change in ΔTm"}, {"measurement": "rate of peptide bond hydrolysis of KH-52", "setting": "20S-REGy complex", "result": "notably decelerated the rate of peptide bond hydrolysis"}, {"measurement": "rate of peptide bond hydrolysis of KH-52", "setting": "[3]", "result": "no impact"}]}
